From patent US7344829B2, “Methods for detecting the efficacy of anticancer treatments” (Board of Regents, the University of Texas System, priority 2000, dated 2008)
Like-named read-outs stand apart in the source and are kept apart here.

Key:
IL-8 = assay: In vitro expression of IL-8 by L3.6pl cells (ELISA); type: cell-based, human; conditions: 72 h, 1 μM PKI166 or 10 nM gemcitabine, control 1440 pg/ml
Procedure: (§1) In vitro Expression of VEGF and IL-8. L3.6pl cells (2000 cells/38 mm^2 well) were plated into 96-well plates in 200 μl supplemented DMEM containing 5% FBS for 24 h, and then treated with 0.05, 0.5, or 1 μM PKI166. Supplemented DMEM (5% FBS) and human IgG (10 μg/ml) served as controls. Seventy-two hours later, the culture supernatants were collected, and the level of VEGF and IL-8 proteins (corrected for cell number) were determined by Quantikine ELISA kits.

c-Src = c-Src (Homo sapiens, UniProt P12931); assay: In vitro kinase filter binding assay, c-Src; type: biochemical
Sequence of c-Src (P12931 whole entry, species assumed, the tested form may be a part): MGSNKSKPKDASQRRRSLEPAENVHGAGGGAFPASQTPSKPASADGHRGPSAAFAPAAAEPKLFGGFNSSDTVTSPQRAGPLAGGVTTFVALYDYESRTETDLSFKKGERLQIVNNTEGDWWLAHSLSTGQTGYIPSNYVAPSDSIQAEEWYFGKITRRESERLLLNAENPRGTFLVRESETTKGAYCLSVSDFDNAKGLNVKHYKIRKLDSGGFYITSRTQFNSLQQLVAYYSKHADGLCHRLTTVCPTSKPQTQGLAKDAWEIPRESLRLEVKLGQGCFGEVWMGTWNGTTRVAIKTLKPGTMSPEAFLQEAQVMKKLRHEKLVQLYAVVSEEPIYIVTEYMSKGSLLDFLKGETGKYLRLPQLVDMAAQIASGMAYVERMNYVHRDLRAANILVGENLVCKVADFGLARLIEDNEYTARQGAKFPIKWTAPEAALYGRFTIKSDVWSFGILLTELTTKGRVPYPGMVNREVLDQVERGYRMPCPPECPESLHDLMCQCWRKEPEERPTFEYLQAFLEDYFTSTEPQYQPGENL
Procedure: (§2) Preparation of Enzymes and Kinase Assays. In vitro enzyme assays using EGF-R (McGlynn et al. 1992a), Abl (Geissler et al. 1992), and c-Src (Geissler et al. 1990) protein tyrosine kinases were performed in 96-well plates as a filter binding assay. Briefly, EGF-R intracellular kinase domain (EGF-R-ICD) was assayed in 20 mM Tris-HCl, pH 7.5, 10 mM MnCl2, 10 μM Na3VO4, 1 mM DTT, 0.1 μCi/assay [γ-^33P]ATP, 0.4 μM ATP, 2 μ/ml poly(Glu,Tyr 4:1) (Sigma P275), 1% DMSO, and 30 ng EGF-R-ICD in a total volume of 30 μl. […] Src kinase (60 μg/ml) was preactivated with 50 μM ATP for 10 min at room temperature, and kinase inhibition was measured in 20 mM Tris-HCl, pH 7.5, 10 mM MgCl2, 10 μM Na3VO4, 1 mM DTT, 0.1 μCi/assay (=30 μl ) [γ-^33P]ATP, 20 μM ATP, 25 μg/ml poly(Glu,Tyr 4:1), 1% DMSO, and 10 ng c-Src enzyme.
(§3) GST-fused kinase domains of Kdr, Flt-1, Flk, Tek, c-Met, and c-Kit were expressed in baculovirus and purified over glutathione-Sepharose. Kinase inhibition was measured by detecting the decrease in phosphorylation of poly(Glu,Tyr 4:1) essentially as previously described for EGF-R. Each kinase was incubated under optimized buffer conditions in 20 mM Tris-HCl, pH 7.5, 1–3 mM MnCl2, 3–10 mM MgCl2, 10 μM Na3VO4, 1 mM DTT, 0.2 μCi/[γ-^33P]ATP, 1–8 μM ATP, 3–8 μg/ml poly(Glu,Tyr 4:1), 1% DMSO in a total volume of 30 μl in the presence or absence of PKI166 for 10 min at ambient temperature. […]

EGF-R-ICD = molecular target: T1, EGF-R-ICD (Homo sapiens, UniProt P00533); assay: In vitro kinase filter binding assay, EGF-R intracellular kinase domain; type: biochemical
T1 construct: EGF-R intracellular kinase domain (EGF-R-ICD) was assayed in 20 mM Tris-HCl
T1 sequence (P00533 669-1210 limits assumed): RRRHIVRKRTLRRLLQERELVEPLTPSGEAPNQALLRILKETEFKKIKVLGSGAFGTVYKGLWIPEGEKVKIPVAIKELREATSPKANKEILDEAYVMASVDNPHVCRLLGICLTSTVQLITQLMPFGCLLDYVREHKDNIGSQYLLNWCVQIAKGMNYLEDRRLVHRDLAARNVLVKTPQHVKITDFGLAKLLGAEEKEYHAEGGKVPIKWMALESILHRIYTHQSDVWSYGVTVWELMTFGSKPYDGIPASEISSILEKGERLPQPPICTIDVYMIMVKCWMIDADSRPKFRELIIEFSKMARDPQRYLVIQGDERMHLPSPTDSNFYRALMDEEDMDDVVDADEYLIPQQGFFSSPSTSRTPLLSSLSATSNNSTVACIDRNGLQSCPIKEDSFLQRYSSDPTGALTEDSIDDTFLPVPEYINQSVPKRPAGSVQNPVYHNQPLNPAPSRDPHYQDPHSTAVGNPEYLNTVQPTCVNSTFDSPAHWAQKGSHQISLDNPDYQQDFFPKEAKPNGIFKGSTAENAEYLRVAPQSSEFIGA
Procedure: Preparation of Enzymes and Kinase Assays. In vitro enzyme assays using EGF-R (McGlynn et al. 1992a), Abl (Geissler et al. 1992), and c-Src (Geissler et al. 1990) protein tyrosine kinases were performed in 96-well plates as a filter binding assay. Briefly, EGF-R intracellular kinase domain (EGF-R-ICD) was assayed in 20 mM Tris-HCl, pH 7.5, 10 mM MnCl2, 10 μM Na3VO4, 1 mM DTT, 0.1 μCi/assay [γ-^33P]ATP, 0.4 μM ATP, 2 μ/ml poly(Glu,Tyr 4:1) (Sigma P275), 1% DMSO, and 30 ng EGF-R-ICD in a total volume of 30 μl. The His-tagged kinase domain of c-Abl was cloned and expressed in the baculovirus/Sf9 system as described previously (Bhat et al. 1997) and assayed in 20 mM Tris-HCl, pH 7.5, 10 mM MgCl2, 10 μM Na3VO4, 1 mM DTT, 0.06 μCi/assay (=30 μl ) [γ-^32P]ATP, 5 μM ATP, 30 μg/ml poly(Ala,Glu,Lys,Tyr 6:2:5:1) (Sigma P1152), 1% DMSO, and 50 ng c-Abl enzyme. Src kinase (60 μg/ml) was preactivated with 50 μM ATP for 10 min at room temperature, and kinase inhibition was measured in 20 mM Tris-HCl, pH 7.5, 10 mM MgCl2, 10 μM Na3VO4, 1 mM DTT, 0.1 μCi/assay (=30 μl ) [γ-^33P]ATP, 20 μM ATP, 25 μg/ml poly(Glu,Tyr 4:1), 1% DMSO, and 10 ng c-Src enzyme.
(§4) GST-fused kinase domains of Kdr, Flt-1, Flk, Tek, c-Met, and c-Kit were expressed in baculovirus and purified over glutathione-Sepharose. Kinase inhibition was measured by detecting the decrease in phosphorylation of poly(Glu,Tyr 4:1) essentially as previously described for EGF-R. Each kinase was incubated under optimized buffer conditions in 20 mM Tris-HCl, pH 7.5, 1–3 mM MnCl2, 3–10 mM MgCl2, 10 μM Na3VO4, 1 mM DTT, 0.2 μCi/[γ-^33P]ATP, 1–8 μM ATP, 3–8 μg/ml poly(Glu,Tyr 4:1), 1% DMSO in a total volume of 30 μl in the presence or absence of PKI166 for 10 min at ambient temperature. Reactions were terminated by adding 10 μl of 250 mM EDTA, and the reaction mixture was transferred onto an Immobilon-PVDG membrane (Millipore, Bedford, Mass.). Following a washing (0.5% H3PO4), a soaking in EtOH, and drying, filters were counted in a liquid scintillation counter. IC50 values for PKI166 were calculated by linear regression analysis of the percentage inhibition. Inhibition of Cdc2/cyclin B protein kinase (Arion et al. 1988; Partanen et al. 1991) and PKC (McGlynn et al. 1992b) was assayed as previously described.

[1] = molecular target: T2, phosphorylated (activated) EGF-R (Mus musculus, UniProt Q01279); assay: Activated EGF-R in UV-2237 fibrosarcoma tumors and skin/hair follicles of mice (immunohistochemistry); type: in vivo, C3H/HeN mice; conditions: 6 administrations
T2 construct: from tissue; host or cells: UV-2237 fibrosarcoma tumours and dorsal skin/hair follicles of C3H/HeN mice
Procedure: C3H/HeN mice were injected subcutaneously with UV-2237 fibrosarcoma cells. Seven days after the implantation, the mice were given 3 weekley oral administrations of PBS, 10 mg/kg PKI166, 50 mg/kg PKI166, and 100 mg/kg PKI166. The mice were killed on day 15 of treatment (6 oral administrations), i.e., one day after the last oral administration.
The tumors were harvested and processed for immunohistochemistry. The contralateral dorsal skin and hair were excised and prepare for immunohistochemistry. The tumors and skin/hair samples were sectioned and stained with antibodies against the EGF-R and antibodies against the phosphorylated (activated) EGF-R. The results are shown in FIG. 8.

VEGF = assay: In vitro expression of VEGF by L3.6pl cells (ELISA); type: cell-based, human; conditions: 72 h, 1 μM PKI166 or 10 nM gemcitabine, control 1400 pg/ml
Procedure: as §1

c-Abl = molecular target: T3, c-Abl (Homo sapiens, UniProt P00519); assay: In vitro kinase filter binding assay, c-Abl kinase domain; type: biochemical; conditions: c-Abl tyrosine kinase
T3 construct: The His-tagged kinase domain of c-Abl was cloned and expressed in the baculovirus/Sf9 system; His; made in house; host or cells: baculovirus/Sf9
T3 sequence (P00519 242-493 limits assumed): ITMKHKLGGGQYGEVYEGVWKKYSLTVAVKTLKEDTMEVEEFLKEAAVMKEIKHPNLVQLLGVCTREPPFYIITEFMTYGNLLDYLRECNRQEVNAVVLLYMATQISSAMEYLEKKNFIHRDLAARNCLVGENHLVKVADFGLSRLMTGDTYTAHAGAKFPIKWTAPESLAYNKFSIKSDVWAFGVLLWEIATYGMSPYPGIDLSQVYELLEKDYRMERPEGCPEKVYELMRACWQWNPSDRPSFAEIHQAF
Procedure: as §2, §3

c-Met = molecular target: T4, c-Met (Homo sapiens, UniProt P08581); assay: GST-fused kinase domain assay, c-Met; type: biochemical
T4 construct: GST-fused kinase domains of Kdr, Flt-1, Flk, Tek, c-Met, and c-Kit were expressed in baculovirus; GST; made in house
T4 sequence (P08581 1078-1345 limits assumed): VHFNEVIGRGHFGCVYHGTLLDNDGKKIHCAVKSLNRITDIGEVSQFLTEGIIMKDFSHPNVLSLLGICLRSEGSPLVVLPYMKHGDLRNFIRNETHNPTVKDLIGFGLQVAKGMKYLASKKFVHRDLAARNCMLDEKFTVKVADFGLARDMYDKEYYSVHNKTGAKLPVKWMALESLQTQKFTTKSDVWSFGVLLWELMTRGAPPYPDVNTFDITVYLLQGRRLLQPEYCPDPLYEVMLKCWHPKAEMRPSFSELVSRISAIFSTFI
Procedure: as §4

In the case of C[C@@H](Nc1ncnc2[nH]c(-c3ccc(O)cc3)cc12)c1ccccc1 [PKI166, 4-(R)-phenethylamino-6-(hydroxyl) phenyl-7H-pyrrolo[2.3-d]-pyrimidine], the “IL-8 in culture supernatant” value (IL-8) is reported as 640 pg/mL, the IC50 (c-Src) is reported as 103 nM and the IC50 (c-Src; text) is reported as 130 nM. For the same compound, the “mode of inhibition of EGF-R kinase” value (EGF-R-ICD; enzyme kinetic studies) was “ATP-competitive inhibition”, the IC50 (EGF-R-ICD; intracellular domain (ICD) of the EGF-R kinase) was 0.7 nM and the “selectivity factor for inhibition of the EGF-R ICD” value (EGF-R-ICD; versus other tyrosine kinases (Traxler et al. 1999)) was > 40. For the same compound, the selectivity ratio (EGF-R-ICD; with respect to inhibition of serine/threonine kinases PKC-α and Cdc2/cyclin B) was > 3000, the “Expression of activated EGF-R in tumors or skin/hair follicles” value ([1]; oral 10 mg/kg) was “did not decrease” and the “Phosphorylation of EGF-R in tumors and skin/hair follicles” value ([1]; oral 50 mg/kg or 100 mg/kg) was “inhibited phosphorylation”. The “VEGF in culture supernatant” value (VEGF) was 180 pg/mL, the IC50 (c-Abl) was 28 nM and the IC50 (c-Met) was > 1000 nM.
